Marks after values point to notes of the source that are not given here.
How the values were obtained:
[1] = test system: pooled human liver microsomes (esterase); assay: Metabolism in pooled human liver microsomes without NADPH (esterase alone); assay type: in vitro ADME; settings: 2 μM final concentration
Description: (§1) Pooled human liver microsomes were used as an in vitro model of drug metabolism. These microsomes contain both esterase and CYP450 drug metabolizing enzymes. Pooled human microsomes were suspended in Tris buffer (50 mM, pH 7.4) at a final concentration of 1 mg/mL of microsomal protein. Test compounds dissolved in acetonitrile:DMSO (1:99) were added to a final concentration of 2 μM. Incubations were performed at 37° C. and samples (50 μL) were collected after 5, 15, 30, 60 and 90 minutes and then were precipitated by the addition of 100 μL of acetonitrile containing Internal Standard and centrifuged at 14,000 rpm for 15 min at 4° C. Samples were analyzed by LC/MS/MS for the content of parent drug.
(§2) To determine the role of CYP450 in the metabolism, incubations were run either with or without an NADPH regenerating system−NADPH is an obligate cofactor for CYP450 enzymes. Incubations that included NADPH cofactor represent the total metabolism by CYP450+ esterase. […] Thus, when the relative decline of parent drug observed is greater in the presence of NADPH, the metabolism is CYP450-mediated. When the relative decline is equivalent in the presence and absence of cofactor the metabolism is esterase mediated.

[2] = as above; assay type: in vitro ADME; settings: human, pooled human liver microsomes without NADPH, pH 7.4, 2 μM final concentration, read-out: Esterase Est T½
Description: as §1, §2

[3] = test system: pooled human liver microsomes (CYP450 + esterase); assay: Metabolism in pooled human liver microsomes with NADPH (CYP450 + esterase); assay type: in vitro ADME; settings: 2 μM final concentration
[4] = as above; assay type: in vitro ADME; settings: human, pooled human liver microsomes with NADPH regenerating system, pH 7.4, 2 μM final concentration, read-out: CYP + Esterase Est T½
[5] = target: T1, vitamin K epoxide reductase (VKER) (Bos taurus, UniProt Q6B4J2); assay: Vitamin K epoxide reductase inhibition, bovine liver microsomal preparation, residual vitamin K epoxide by HPLC; assay type: biochemical
T1 construct: Microsomes were prepared from fresh cow liver; from tissue; host or cells: fresh cow liver microsomes
T1 sequence (Q6B4J2 1-163): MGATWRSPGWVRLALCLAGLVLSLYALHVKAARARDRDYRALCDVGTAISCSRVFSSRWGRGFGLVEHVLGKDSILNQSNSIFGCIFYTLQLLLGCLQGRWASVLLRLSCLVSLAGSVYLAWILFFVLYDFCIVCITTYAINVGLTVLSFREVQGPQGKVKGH
Description: Compounds of the subject invention were tested against vitamin K epoxide reductase.
Briefly: increasing concentrations of compounds were incubated in the presence of vitamin K epoxide and in the presence of a bovine microsomal preparation containing vitamin K epoxide reductase. The amount of residual vitamin K epoxide at the end of the incubation period was directly proportional to the inhibitory activity of the test compounds on the enzyme.
Microsomes were prepared from fresh cow liver according to the method described in: “Purification of gamma-glutamyl carboxylase from bovine liver. Wu S M, Mutucumarana V P, and Stafford D W. Methods in Enzymology (1997) 282:346-57.”
Serial dilutions of test compounds were prepared as follows: Dissolve the test compounds to a final dilution of 10 mM either in water or in DMSO (if not soluble in water). From this mother solution, prepare 2 further dilutions by diluting it with water: one 200 μM solution and one 5 mM solution. Prepare a series of tubes as follows:
Remove 15 μL from tube 4 and add to tube 5, vortex, then remove 15 μL from tube 5 and add to tube 6, vortex, etc. . . . until 15 μL is added to tube 9. Vortex and then remove 15 μL from tube 9.
Prepare another set of 4 tubes and add 30 μL of water.
A reaction mixture consisting of 600 μL buffer (2.5M NaCl, 0.125M MOPS, pH7.5), 520 μL water, and 150 μL of 10% CHAPS was prepared. The tubes were kept on ice for 5 minutes and then 500 μL of microsomal preparation was added. The mixture was mixed by vortex and kept on ice for 10 min for sufficient solubilization. To this was added 150 μL of vitamin K epoxide solution (1.5 mg/ml in isopropanol), then again vortexed and kept on ice for 5 minutes. An aliquot (70 μL) of this reaction mix was added to each one of the series of tubes prepared as above and containing serial dilutions of test compounds in 30 μL of water. The tubes were then vortexed and then kept on ice for 5 min. To 2 of the water-containing tubes was added 500 μL of a stop reagent consisting of 5 volumes of 50 mM AgNO3 and 5 volumes of isopropanol. These 2 tubes were used to measure a zero value.
The tubes were placed in a 30 C mixer for 3 min and 5 μL of 100 mM DTT solution in water was added. The tubes were then vortexed and kept in the dark without shaking for another 20 min, at the end of which 500 μL of the stop reagent was added.
To each tube was then added 600 μL of a 100 μg/ml solution of vitamin E in hexane, the tubes were capped and then vortexed for 1 minute. The tubes were then centrifuged for 5 min at 5,000 g, and the upper layer (the hexane layer) was transferred to a series of fresh tubes. The hexane was evaporated at room temperature in the dark using a speedvac, and the resulting pellet was resuspended in 100 μL of methanol.
The amount of vitamin K epoxide in each sample was then measured using a HPLC determination method. Residual vitamin K epoxide was then plotted against test compound concentration.

[6] = Control incubation without microsomes (buffer stability); assay type: physicochemical; settings: 2 μM final concentration, no microsomes; for half-life at 2 μM: buffer without microsomes (control incubation), pH 7.4, read-out: Buffer Est T½
Description: as §1, with “Pooled human microsomes were suspended in Tris buffer (50 mM, pH 7.4) at a final concentration of 1 mg/mL of microsomal protein.” left out
All of the compounds were stable.

[7] = Broad cellular and biochemical receptor screening assay; settings: concentrations up to 10 μM
human IKr (hERG) = target: T2, human IKr (hERG) (Homo sapiens, UniProt Q12809); assay: Whole-cell patch-clamp recording of IKr in stably transfected HEK-293 cells expressing the hERG gene; assay type: cell-based
T2 construct: expressed in transfected cells; host or cells: HEK-293, stably transfected
T2 sequence (Q12809 whole entry): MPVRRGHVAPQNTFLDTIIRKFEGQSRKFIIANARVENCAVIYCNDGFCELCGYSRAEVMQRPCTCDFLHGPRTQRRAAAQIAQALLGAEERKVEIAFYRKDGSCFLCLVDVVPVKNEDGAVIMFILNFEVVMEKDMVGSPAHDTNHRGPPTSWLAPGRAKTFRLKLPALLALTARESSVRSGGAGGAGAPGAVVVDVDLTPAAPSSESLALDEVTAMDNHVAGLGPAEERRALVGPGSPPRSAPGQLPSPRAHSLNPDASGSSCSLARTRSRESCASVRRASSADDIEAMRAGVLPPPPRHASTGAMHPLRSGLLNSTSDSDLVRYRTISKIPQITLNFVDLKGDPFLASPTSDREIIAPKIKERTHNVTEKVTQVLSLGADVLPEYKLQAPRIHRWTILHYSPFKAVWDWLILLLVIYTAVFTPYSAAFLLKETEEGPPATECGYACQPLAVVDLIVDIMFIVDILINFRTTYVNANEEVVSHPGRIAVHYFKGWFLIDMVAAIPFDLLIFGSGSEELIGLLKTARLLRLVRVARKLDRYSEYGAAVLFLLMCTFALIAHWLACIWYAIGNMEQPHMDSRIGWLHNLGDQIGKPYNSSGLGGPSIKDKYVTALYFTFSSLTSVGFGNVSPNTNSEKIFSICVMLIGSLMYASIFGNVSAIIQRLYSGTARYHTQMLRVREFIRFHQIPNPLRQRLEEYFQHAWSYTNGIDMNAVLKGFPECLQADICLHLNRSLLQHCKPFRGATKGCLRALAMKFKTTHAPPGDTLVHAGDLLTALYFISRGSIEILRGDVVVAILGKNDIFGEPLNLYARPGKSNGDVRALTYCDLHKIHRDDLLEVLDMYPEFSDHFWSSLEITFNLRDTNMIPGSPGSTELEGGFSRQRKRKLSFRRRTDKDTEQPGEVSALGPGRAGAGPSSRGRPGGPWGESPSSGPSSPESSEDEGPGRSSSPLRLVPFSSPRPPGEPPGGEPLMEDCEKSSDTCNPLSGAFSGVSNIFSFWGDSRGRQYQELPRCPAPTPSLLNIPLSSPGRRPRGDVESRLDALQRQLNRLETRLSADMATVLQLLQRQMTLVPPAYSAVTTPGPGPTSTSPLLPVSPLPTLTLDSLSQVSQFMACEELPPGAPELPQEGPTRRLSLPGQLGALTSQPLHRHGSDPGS
Description: Electrophysiological recordings of IKr in stably transfected HEK-293 cells were made in the whole cell configuration of the patch-clamp technique (Hamill et al, 1981) using an Axopatch 200B amplifier (Axon Instruments, Foster City, Calif.). Patch microelectrodes were pulled from 1.5-mm borosilicate glass tubing using a two-stage vertical pipette puller (Narishige, East Meadow, N.Y.). […] HEK-293 cells were plated in 35 mm plastic cell and tissue culture dishes for 2-3 days. For application of drug-containing solutions to cells, the SF-77B system (Warner Instrument Corp, Hamden, Conn.) was used. Solution exchanges were completed within 20 ms. Current data were digitized online using a DigiData 1200A analog-to-digital board (Axon Instruments) and stored on the hard disc of an IBM compatible Pentium computer (GP7-600 MHz, Gateway Computer, Sioux City, N. Dak.). […]
The effect of warfarin, 2,2,2-trifluoro-1-methyl-1-(trifluoromethyl)ethyl 4-[(4-hydroxy-2-oxo-2H-chromen-3-yl)methyl]benzoate and its corresponding acid metabolite, 4-[(4-hydroxy-2-oxo-2H-chromen-3-yl)methyl]benzoic acid on IKr was studied in a stably transfected HEK-293 cell line using a two-pulse protocol. […] Tail IKr amplitude was measured as the difference between the peak current and baseline current at −50 mV in control and in the presence of ATI-compounds when steady-state block was obtained.

SMILES | Esterase % Stability at 90 min [1] [%] | CYP + Esterase % Stability at 90 min [3] | half-life at 2 μM [4] [h] | IC50 [5] [µM] | Buffer % Stability at 90 min [6] [%] | half-life at 2 μM [6] [h] | Esterase Est T½ [1] [h] | CYP + Esterase Est T½ [3] [h] | half-life at 2 μM [2] [h] | activity in broad cellular and biochemical receptor screening [7] | IC50 (human IKr (hERG)) [µM]
CC(OC(=O)c1ccc(Cc2c(O)c3ccccc3oc2=O)cc1)C(F)(F)C(F)(F)F (racemic) | 70 | 69% | > 1.5 | 3.38 | 108 | > 1.5 |  |  | > 1.5 |  | 
CC(OC(=O)c1ccc(Cc2c(O)c3ccccc3oc2=O)cc1)(C(F)(F)F)C(F)(F)F [2,2,2-trifluoro-1-methyl-1-(trifluoromethyl)ethyl 4-[(4-hydroxy-2-oxo-2H-chromen-3-yl)methyl]benzoate] |  |  |  |  |  |  |  |  |  | Nor did either compound exhibit significant activity | > 100
O=C(O)c1ccc(Cc2c(O)c3ccccc3oc2=O)cc1 [4-[(4-hydroxy-2-oxo-2H-chromen-3-yl)methyl]benzoic acid] |  |  |  |  |  |  |  |  |  | Nor did either compound exhibit significant activity | > 1000
CC(=O)CC(c1ccccc1)c1c(O)c2ccccc2oc1=O (stereo not shown) [Warfarin, reference compound] |  |  |  | 3 ± 0.8 |  |  |  |  |  |  | 
CC(OC(=O)c1ccc(Cc2c(O)c3ccccc3oc2=O)cc1)(C(F)(F)F)C(F)(F)F [drawing 30] | 96 | 90%** (>90 min) | > 1.5 | 5.07 | 92 | > 1.5 |  |  | > 1.5 |  | 

Continued, in another order:

Esterase % Stability at 90 min [1] [%] | CYP + Esterase % Stability at 90 min [3] | half-life at 2 μM [4] [h] | IC50 [5] [µM] | Buffer % Stability at 90 min [6] [%] | half-life at 2 μM [6] [h] | Esterase Est T½ [1] [h] | CYP + Esterase Est T½ [3] [h] | SMILES | half-life at 2 μM [2] [h] | activity in broad cellular and biochemical receptor screening [7] | IC50 (human IKr (hERG)) [µM]
 | 101% | > 1.5 | > 30 | 99 | > 1.5 |  |  | O=C(O)c1ccc(Cc2c(O)c3ccccc3oc2=O)cc1 [drawing 28] |  |  | 
86 | 70% |  | 4.02 | 123 | > 1.5 | > 1.5 | > 1.5 | CC(OC(=O)c1ccc(Cc2c(O)c3ccccc3oc2=O)cc1)C(F)(F)C(F)(F)F (stereo not shown) [drawing 31] |  |  | 
27 | 24% |  | 4.15 | 113 |  | ~0.5 | ~0.5 | CC(OC(=O)c1ccc(Cc2c(O)c3ccccc3oc2=O)cc1)C(F)(F)C(F)(F)F (stereo not shown) [drawing 32] |  |  | 

— patent US7932405B2, “Halogenated ester derivatives of coumarins for the treatment of coagulation disorders” (Aryx Therapeutics, Inc., priority 2007, dated 2011)
